Source: publication PMC5578999, “Novel quinolone chalcones targeting colchicine-binding pocket kill multidrug-resistant cancer cells by inhibiting tubulin activity and MRP1 function” (Scientific Reports, 2017)

What was measured:
Test in all cases: NCI-60 SRB screen
Format in all cases: cell-based
A498 = test system: A498
From the text: (§1) Supplementary Figure l egend
(§2) 10μ M of CTR-20 was used to examine the drug’s efficac y against the NC I-60 cancer cell li nes including: six leukemia cell lines, nine non- small cell lung cancer cell lines, seven color ect al cancer cell lines, six CNS cancer cell lines, nine melanoma cell lines, seven ovari an can cer cell lines, seven ren al can cer cell lines, two prostate cancer cell lines and six breast cancer cell lines. The scr eenin g was car r ied out b y the US National Cancer Institute (NC I) us i n g a sulforhodamine B (SRB) colorimetric assay. […]
(§3) out by the NC I using five different doses of CTR -20.

HCC-2998 = test system: HCC-2998
From the text: as §1, §2, §3

HOP-92 = test system: HOP-92
From the text: as §1, §2, §3

MDA-MB-231/ATCC = test system: MDA-MB-231/ATCC
From the text: as §1, §2, §3

MDA-MB-435 = test system: MDA-MB-435
From the text: as §1, §2, §3

NCI-H460 = test system: NCI-H460
From the text: as §1, §2, §3

NCI/ADR-RES = test system: NCI/ADR-RES
From the text: as §1, §2, §3

OVCAR-4 = test system: OVCAR-4
From the text: as §1, §2, §3

RPMI-8226 = test system: RPMI-8226
From the text: as §1, §2, §3

RXF 393 = test system: RXF 393
From the text: as §1, §2, §3

T-47D = test system: T-47D
From the text: as §1, §2, §3

UO-31 = test system: UO-31
From the text: as §1, §2, §3

[1] = Homo sapiens, read-out: LC50 (the source's name)

`COc1ccc2[nH]c(=O)c(/C=C/C(=O)c3ccccc3OC)cc2c1` [CTR-20, (E)-6-Methoxy-3-(3-(2-methoxyphenyl)-3-oxoprop-1-enyl) quinolin-2(1H)-one] showed a Log10GI50 (A498) of -6.18 Molar, a Log10LC50 (A498) of -4.63 Molar and a Log10TGI (A498) of -5.34 Molar. For the same compound, the TGI (A498) was 4.55E-6 Molar, the “Growth Percent” value (A498; 1.00E-5 Molar) was 21.71% and the GI50 (A498; Homo sapiens) was 0.656 µM. The CC50 (A498; [1]) was 23.6 µM, the “Percent Growth” value (A498; Log10 Concentration -4.0) was -100% and the “Percent Growth” value (A498; Log10 Concentration -5.0) was -20%. For the same compound, the “Percent Growth” value (A498; Log10 Concentration -6.0) was 39%, the “Percent Growth” value (A498; Log10 Concentration -7.0) was 99% and the “Percent Growth” value (A498; Log10 Concentration -8.0) was 97%. It also gave a Log10GI50 (HCC-2998) of -5.80 Molar, a Log10LC50 (HCC-2998) of -5.23 Molar and a Log10TGI (HCC-2998) of -5.52 Molar. The TGI (HCC-2998) was 3.03E-6 Molar, the “Growth Percent” value (HCC-2998; 1.00E-5 Molar) was 23.11% and the GI50 (HCC-2998; Homo sapiens) was 1.57 µM. The CC50 (HCC-2998; [1]) was 5.85 µM, the “Percent Growth” value (HCC-2998; Log10 Concentration -4.0) was -91% and the “Percent Growth” value (HCC-2998; Log10 Concentration -5.0) was -91%. For the same compound, the “Percent Growth” value (HCC-2998; Log10 Concentration -6.0) was 84%, the “Percent Growth” value (HCC-2998; Log10 Concentration -7.0) was 97% and the “Percent Growth” value (HCC-2998; Log10 Concentration -8.0) was 99%. The Log10GI50 (HOP-92) was -5.80 Molar, the Log10LC50 (HOP-92) was -4.57 Molar and the Log10TGI (HOP-92) was -5.21 Molar. The TGI (HOP-92) was 6.17E-6 Molar, the “Growth Percent” value (HOP-92; 1.00E-5 Molar) was -11.97% and the GI50 (HOP-92; Homo sapiens) was 1.57 µM. For the same compound, the LC50 (HOP-92; Homo sapiens) was 27 µM, the “Percent Growth” value (HOP-92; Log10 Concentration -4.0) was -92% and the “Percent Growth” value (HOP-92; Log10 Concentration -5.0) was -18%. For the same compound, the “Percent Growth” value (HOP-92; Log10 Concentration -6.0) was 67%, the “Percent Growth” value (HOP-92; Log10 Concentration -7.0) was 111% and the “Percent Growth” value (HOP-92; Log10 Concentration -8.0) was 107%. The Log10GI50 (MDA-MB-231/ATCC) was -5.84 Molar, the Log10LC50 (MDA-MB-231/ATCC) was -4.40 Molar and the Log10TGI (MDA-MB-231/ATCC) was -4.96 Molar. The TGI (MDA-MB-231/ATCC) was 1.10E-5 Molar, the “Growth Percent” value (MDA-MB-231/ATCC; 1.00E-5 Molar) was 0.32% and the GI50 (MDA-MB-231/ATCC; Homo sapiens) was 1.44 µM. For the same compound, the CC50 (MDA-MB-231/ATCC; [1]) was 39.6 µM, the “Percent Growth” value (MDA-MB-231/ATCC; Log10 Concentration -4.0) was -86% and the “Percent Growth” value (MDA-MB-231/ATCC; Log10 Concentration -5.0) was 4%. For the same compound, the “Percent Growth” value (MDA-MB-231/ATCC; Log10 Concentration -6.0) was 59%, the “Percent Growth” value (MDA-MB-231/ATCC; Log10 Concentration -7.0) was 102% and the “Percent Growth” value (MDA-MB-231/ATCC; Log10 Concentration -8.0) was 102%. The Log10GI50 (MDA-MB-435) was -7.25 Molar, the Log10LC50 (MDA-MB-435) was -4.66 Molar and the Log10TGI (MDA-MB-435) was -6.56 Molar. The TGI (MDA-MB-435) was 2.75E-7 Molar, the “Growth Percent” value (MDA-MB-435; 1.00E-5 Molar) was -10.05% and the GI50 (MDA-MB-435; Homo sapiens) was 0.0564 µM. For the same compound, the CC50 (MDA-MB-435; [1]) was 21.9 µM, the “Percent Growth” value (MDA-MB-435; Log10 Concentration -4.0) was -97% and the “Percent Growth” value (MDA-MB-435; Log10 Concentration -5.0) was -26%. The “Percent Growth” value (MDA-MB-435; Log10 Concentration -6.0) was -46%, the “Percent Growth” value (MDA-MB-435; Log10 Concentration -7.0) was 36% and the “Percent Growth” value (MDA-MB-435; Log10 Concentration -8.0) was 92%. It also gave a Log10GI50 (NCI-H460) of -6.42 Molar, a Log10LC50 (NCI-H460) of -4.44 Molar and a Log10TGI (NCI-H460) of -5.65 Molar. For the same compound, the TGI (NCI-H460) was 2.25E-6 Molar, the “Growth Percent” value (NCI-H460; 1.00E-5 Molar) was 1.79% and the GI50 (NCI-H460; Homo sapiens) was 0.38 µM. For the same compound, the CC50 (NCI-H460; [1]) was 36.7 µM, the “Percent Growth” value (NCI-H460; Log10 Concentration -4.0) was -71% and the “Percent Growth” value (NCI-H460; Log10 Concentration -5.0) was -22%. For the same compound, the “Percent Growth” value (NCI-H460; Log10 Concentration -6.0) was 12%, the “Percent Growth” value (NCI-H460; Log10 Concentration -7.0) was 102% and the “Percent Growth” value (NCI-H460; Log10 Concentration -8.0) was 105%. For the same compound, the Log10GI50 (NCI/ADR-RES) was -6.56 Molar, the Log10LC50 (NCI/ADR-RES) was > -4.00 Molar and the Log10TGI (NCI/ADR-RES) was -4.70 Molar. For the same compound, the TGI (NCI/ADR-RES) was 2.00E-5 Molar, the “Growth Percent” value (NCI/ADR-RES; 1.00E-5 Molar) was 10.36% and the GI50 (NCI/ADR-RES; Homo sapiens) was 0.273 µM. The CC50 (NCI/ADR-RES; [1]) was > 100 µM, the “Percent Growth” value (NCI/ADR-RES; Log10 Concentration -4.0) was -8% and the “Percent Growth” value (NCI/ADR-RES; Log10 Concentration -5.0) was 3%. For the same compound, the “Percent Growth” value (NCI/ADR-RES; Log10 Concentration -6.0) was 14%, the “Percent Growth” value (NCI/ADR-RES; Log10 Concentration -7.0) was 78% and the “Percent Growth” value (NCI/ADR-RES; Log10 Concentration -8.0) was 97%. The Log10GI50 (OVCAR-4) was -5.39 Molar, the Log10LC50 (OVCAR-4) was -4.11 Molar and the Log10TGI (OVCAR-4) was -4.63 Molar. The TGI (OVCAR-4) was 2.32E-5 Molar, the “Growth Percent” value (OVCAR-4; 1.00E-5 Molar) was 50.80% and the GI50 (OVCAR-4; Homo sapiens) was 4.07 µM. For the same compound, the CC50 (OVCAR-4; [1]) was 76.9 µM, the “Percent Growth” value (OVCAR-4; Log10 Concentration -4.0) was -61% and the “Percent Growth” value (OVCAR-4; Log10 Concentration -5.0) was 35%. The “Percent Growth” value (OVCAR-4; Log10 Concentration -6.0) was 73%, the “Percent Growth” value (OVCAR-4; Log10 Concentration -7.0) was 95% and the “Percent Growth” value (OVCAR-4; Log10 Concentration -8.0) was 94%. The Log10GI50 (RPMI-8226) was -6.41 Molar, the Log10LC50 (RPMI-8226) was > -4.00 Molar and the Log10TGI (RPMI-8226) was -5.66 Molar. The TGI (RPMI-8226) was 2.21E-6 Molar, the “Growth Percent” value (RPMI-8226; 1.00E-5 Molar) was 5.61% and the GI50 (RPMI-8226; Homo sapiens) was 0.385 µM. The CC50 (RPMI-8226; [1]) was > 100 µM, the “Percent Growth” value (RPMI-8226; Log10 Concentration -4.0) was -37% and the “Percent Growth” value (RPMI-8226; Log10 Concentration -5.0) was -20%. The “Percent Growth” value (RPMI-8226; Log10 Concentration -6.0) was 10%, the “Percent Growth” value (RPMI-8226; Log10 Concentration -7.0) was 106% and the “Percent Growth” value (RPMI-8226; Log10 Concentration -8.0) was 113%. The Log10GI50 (RXF 393) was -5.99 Molar, the Log10LC50 (RXF 393) was -5.19 Molar and the Log10TGI (RXF 393) was -5.59 Molar. For the same compound, the TGI (RXF 393) was 2.57E-6 Molar, the “Growth Percent” value (RXF 393; 1.00E-5 Molar) was -7.90% and the GI50 (RXF 393; Homo sapiens) was 1.02 µM. The CC50 (RXF 393; [1]) was 6.48 µM, the “Percent Growth” value (RXF 393; Log10 Concentration -4.0) was -98% and the “Percent Growth” value (RXF 393; Log10 Concentration -5.0) was -74%. The “Percent Growth” value (RXF 393; Log10 Concentration -6.0) was 51%, the “Percent Growth” value (RXF 393; Log10 Concentration -7.0) was 99% and the “Percent Growth” value (RXF 393; Log10 Concentration -8.0) was 99%. For the same compound, the Log10GI50 (T-47D) was -5.98 Molar, the Log10LC50 (T-47D) was -4.32 Molar and the Log10TGI (T-47D) was -4.93 Molar. For the same compound, the TGI (T-47D) was 1.18E-5 Molar, the “Growth Percent” value (T-47D; 1.00E-5 Molar) was -2.02% and the GI50 (T-47D; Homo sapiens, T47D) was 1.06 µM. For the same compound, the CC50 (T-47D; Homo sapiens, T47D, read-out: LC50 (the source's name)) was 47.9 µM, the “Percent Growth” value (T-47D; Log10 Concentration -4.0) was -76% and the “Percent Growth” value (T-47D; Log10 Concentration -5.0) was 6%. The “Percent Growth” value (T-47D; Log10 Concentration -6.0) was 51%, the “Percent Growth” value (T-47D; Log10 Concentration -7.0) was 90% and the “Percent Growth” value (T-47D; Log10 Concentration -8.0) was 84%. It also gave a Log10GI50 (UO-31) of -6.02 Molar, a Log10LC50 (UO-31) of -5.28 Molar and a Log10TGI (UO-31) of -5.64 Molar. For the same compound, the TGI (UO-31) was 2.28E-6 Molar, the “Growth Percent” value (UO-31; 1.00E-5 Molar) was 23.62% and the GI50 (UO-31; Homo sapiens) was 0.958 µM. For the same compound, the CC50 (UO-31; [1]) was 5.27 µM, the “Percent Growth” value (UO-31; Log10 Concentration -4.0) was -100% and the “Percent Growth” value (UO-31; Log10 Concentration -5.0) was -88%. For the same compound, the “Percent Growth” value (UO-31; Log10 Concentration -6.0) was 49%, the “Percent Growth” value (UO-31; Log10 Concentration -7.0) was 81% and the “Percent Growth” value (UO-31; Log10 Concentration -8.0) was 87%.
